test system: Mycobacterium tuberculosis strain EH4.0 expressing green-fluorescent protein (GFP); test: microbe, parasite or virus in culture; type: cell-based; settings: 168 h, read-out: pIC50 (converted)

Which IC50 does the source give for `CCc1nc2cc(Cl)c(OC)cn2c1C(=O)NCc1ccc(N2CCN(S(=O)(=O)C(F)(F)F)C(OC)=N2)c(F)c1` [Compound 49] here?
Its IC50 is 23.4 nM.

How did the IC50 turn out when `CCc1nc2ncc(OC)cn2c1C(=O)NCc1ccc(N2CCN(S(=O)(=O)C(F)(F)F)C(OC)=N2)c(F)c1` [Compound 50] was run?
The IC50 was 1.07 nM.

With `CCc1nc2cc(OC)ccn2c1C(=O)NCc1ccc(N2CCN(S(=O)(=O)C(F)(F)F)C=N2)cc1` [Compound 51] as the compound, how does the IC50 read?
Its IC50 is 45.7 nM.

`CCc1nc2cc(OC)ccn2c1C(=O)NCc1ccc(N2CCN(S(=O)(=O)C(F)(F)F)C(OC)=N2)cc1` [Compound 52] was tested. Which IC50 did it give?
Its IC50 is 41.7 nM.

`CCc1nc2cc(OC)c(OC)cn2c1C(=O)NCc1ccc(N2CCN(S(=O)(=O)C(F)(F)F)C(OC)=N2)c(F)c1` [Compound 53] was tested. Which IC50 did it give?
Its IC50 is 81.3 nM.

With `CCc1nc2ccc(Cl)cn2c1C(=O)NCc1ccc(N2CCN(S(=O)(=O)C(F)(F)F)C(CCOC)=N2)cc1` [Compound 55] as the compound, how does the IC50 read?
Its IC50 is 25.7 nM.

Which IC50 does the source give for `CCc1nc2ccc(Cl)cn2c1C(=O)NCc1ccc(N2CCNC=N2)cc1` [Compound 56] here?
The IC50 was 158000 nM.

How did the IC50 turn out when `CCc1nc2n(c1C(=O)NCc1ccc(N3CCNC=N3)cc1)CCCC2` [Compound 57] was run?
Its IC50 is no less than 501 nM.

With `CCc1nc2n(c1C(=O)NCc1ccc(N3CCN(S(=O)(=O)CCOC)C=N3)cc1)CCCC2` [Compound 58] as the compound, how does the IC50 read?
Its IC50 is 251 nM.

For `CCc1nc2ccc(Cl)cn2c1C(=O)NCc1ccc(N2CCN(C)C(C)=N2)cc1` [Compound 59], which IC50 is on record?
Its IC50 is 200 nM.

For `CCc1nc2ncc(C(=O)N(C)C)cn2c1C(=O)NCc1ccc(N2CCN(S(=O)(=O)C(F)(F)F)C=N2)cc1` [Compound 60], which IC50 is on record?
The IC50 was 200 nM.

`CCc1nc2ncc(C(=O)NC)cn2c1C(=O)NCc1ccc(N2CCN(S(=O)(=O)C(F)(F)F)C=N2)cc1` [Compound 61] was tested. Which IC50 did it give?
The IC50 was no less than 501 nM.

With `CCc1nc2ncc(C(C)=O)cn2c1C(=O)NCc1ccc(N2CCN(S(=O)(=O)C(F)(F)F)C=N2)cc1` [Compound 62] as the compound, how does the IC50 read?
Its IC50 is no less than 501 nM.

How did the IC50 turn out when `CCc1nc2ccc(CCCOC)cn2c1C(=O)NCc1ccc(N2CCN(S(=O)(=O)C(F)(F)F)C=N2)cc1` [Compound 63] was run?
The IC50 was no less than 501 nM.

How did the IC50 turn out when `CCc1nc2cc(OC)c(Cl)cn2c1C(=O)NCc1ccc(N2CCN(S(=O)(=O)C(F)(F)F)C=N2)cc1` [Compound 64] was run?
Its IC50 is 316 nM.

For `CCc1nc2ccc(N3CCCC3)cn2c1C(=O)NCc1ccc(N2CCN(S(=O)(=O)C(F)(F)F)C=N2)cc1` [Compound 65], which IC50 is on record?
The IC50 was no less than 501 nM.

For `CCc1nc2ccc(Cl)cn2c1C(=O)NCc1ccc(N2CCN(C(=O)C(F)(F)F)C=N2)cc1` [Compound 66], which IC50 is on record?
The IC50 was 251 nM.

`CCc1nc2cc(Cl)c(OC)cn2c1C(=O)NCc1ccc(N2CCN(S(=O)(=O)C(F)(F)F)C=N2)cc1` [Compound 67] was tested. Which IC50 did it give?
Its IC50 is 200 nM.

`CCc1nc2cc(OC)c(Cl)cn2c1C(=O)NCc1ccc(N2CCN(S(=O)(=O)C(F)(F)F)C(OC)=N2)cc1` [Compound 68] was tested. Which IC50 did it give?
Its IC50 is no less than 501 nM.

Which IC50 does the source give for `CCc1nc2ccc(Cl)cn2c1C(=O)NCc1ccc(N2CCN(Cc3nc(C(F)(F)F)cs3)C=N2)cc1` [Compound 69] here?
The IC50 was 126 nM.

With `CCc1nc2cccc(Cl)n2c1C(=O)NCc1ccc(N2CCN(S(=O)(=O)C(F)(F)F)C(OC)=N2)cc1` [Compound 70] as the compound, how does the IC50 read?
The IC50 was no less than 501 nM.

For `CCc1nc2ccc(C#N)cn2c1C(=O)NCc1ccc(N2CCN(S(=O)(=O)C(F)(F)F)C(OC)=N2)cc1` [Compound 71], which IC50 is on record?
The IC50 was 166 nM.

For `CCc1nc2ccc(C#N)cn2c1C(=O)NCc1ccc(N2CCN(S(=O)(=O)C(F)(F)F)C=N2)cc1` [Compound 72], which IC50 is on record?
The IC50 was 158 nM.

With `CCc1nc2ccc(Cl)cn2c1C(=O)NCc1ccc(N2CCN(S(=O)(=O)C(F)(F)F)C(CN(C)C)=N2)cc1` [Compound 74] as the compound, how does the IC50 read?
The IC50 was 6.76 nM.

For `CCc1nc2cc(OC)ccn2c1C(=O)NCc1ccc(N2CCN(S(=O)(=O)C(F)(F)F)C(OC)=N2)c(F)c1` [Compound 75], which IC50 is on record?
Its IC50 is 6.31 nM.

`CCc1nc2ccc(Cl)cn2c1C(=O)NCc1ccc(N2CCN(c3nccs3)C=N2)cc1` [Compound 76] was tested. Which IC50 did it give?
The IC50 was 13.5 nM.

For `CCc1nc2ccc(Cl)cn2c1C(=O)NCc1ccc(N2CCN(S(=O)(=O)C(F)(F)F)C(CC#N)=N2)cc1` [Compound 77], which IC50 is on record?
Its IC50 is 7.94 nM.

How did the IC50 turn out when `COC1=NN(c2ccc(CNC(=O)c3c(C(F)(F)F)nc4ccccn34)cc2F)CCN1S(=O)(=O)C(F)(F)F` [Compound 79] was run?
The IC50 was 3.72 nM.

Reference: patent US20220340564A1, “ANTIBACTERIAL COMPOUNDS” (Janssen Sciences Ireland Unlimited Company, priority 2019, published 2022)
